Like-named read-outs stand apart in the source and are kept apart here. Bridge positions count the residues as written; N and C are the ends. Square brackets hold non-standard residues; d marks the D form. Peptide text beside a SMILES is read from it. Phe(4-CF3) = N[C@@H](Cc1ccc(C(F)(F)F)cc1)C(=O)O; Dmt = Cc1cc(O)cc(C)c1C[C@H](N)C(=O)O
Assays:
[1] = Kinetic solubility assay; assay type: physicochemical; details: PBS buffer, pH 7.4
Description: Kinetic solubility assay was performed using Multiscreen HTS Vacuum Manifold (Merck Millipore, Warsaw, Poland). Compounds for this test were prepared as 10 mM stock solutions in DMSO and diluted in a standard PBS buffer (pH = 7.4), to the final concentrations of 0.5 mM. The solutions were applied into a 96-well filter plate and incubated for 90 min at room temperature, while shaking at 40 g and then filtrated. The concentration of each compound was determined on the basis of the prepared calibration curve using the UV–VIS spectrophotometric method. According to the absorption spectra of the compounds the wavelength used for the measurements was 280 nm for both, C-36 and F-81.

[2] = for BBB permeability Pe ± SD: brain polar lipid extract, 200 µM, 4 h, room temperature; for Classification (BBB permeation): classified by Pe
Description: Parallel Artificial Membrane Permeability Assay (PAMPA) was performed using Multiscreen Filter Plate and Multiscreen Transport Receiver Plate (Merck Millipore, Warsaw, Poland). Tested, as well as reference compounds, were dissolved in 0.1 M PBS buffer containing 20% of ethanol, to the final concentration of 200 µM. A 300 µl aliquots of 0.1 M PBS solution (pH = 7.4) was dispensed into the wells of the […]. Then 1% n-dodecane solution of the brain polar lipid extract (Avanti Polar Lipids; Sigma Aldrich, Poznan, Poland) was prepared to investigate the blood–brain barrier (BBB) permeability. Aliquots of the obtained lipid solutions (5 µl) were dispensed on the membranes of wells of the donor plate and left to dry. […] A complete system, consisting of the receiver plate with inserted donor plate, was incubated at room temperature for 4 h, shaking at 40 g, to guarantee good solvent mixing.
The ability of the tested compounds to permeate the artificial membranes was classified according to the literature[33] as:
Artificial membrane permeability was assessed in the PAMPA assay and the permeability coefficient (Pe) was calculated from the following equation: Pe=C×-ln1-×Ca/Cr where C=Vd ×Va /(Vd+Va)×p×t
Membrane retention was analysed using mass balance between a compound left in the donor and acceptor compartments and calculated using the following equation: MB=Ca×Va+(Cd×Vd)/Cinitial×Vd where

[3] = test system: Male CD-1 mice; assay: Hot-plate test after i.c.v. administration; assay type: in vivo; details: for ED50 (jumping response): mice
Description: Male CD-1 mice (Harlan, Italy) weighing 25–30 g were used to determine the anti-nociceptive activity of the cyclopeptides in the hot-plate test after i.c.v. injection. Animal studies and research protocols were approved by the Service for Biotechnology and Animal Welfare of the Istituto Superiore di Sanità and authorized by the Italian Ministry of Health, according to Legislative Decree 26/14 (protocol number: 198/2013-B, 14 August 2013), which implemented the European Directive 2010/63/EEC on laboratory animal protection. Animal welfare was routinely checked by veterinarians from the Service for Biotechnology and Animal Welfare.
The hot-plate test was performed as described earlier. The intracerebroventricular (i.c.v.) injections were performed in a volume of 10 µl/animal, in the left brain ventricle of manually immobilized mice with a Hamilton microsyringe (50 µl) connected to a needle (diameter 0.5 mm). Peptides were also administrated in mice intravenously (i.v.) in a volume of 1 ml/kg. All compounds used for i.c.v. and i.v. administration were dissolved in saline. A transparent plastic cylinder (14 cm diameter, 31 cm height) was used to confine the mouse on the heated (55 ± 0.5 °C) surface of the plate. The animals were placed on the hot plate 5 min after the i.c.v. injection of saline (control) or peptides and the latencies to paw licking, rearing and jumping were measured at 5, 10, 20, 30, 45, 60, 90, and 120 min after administration of a peptide. A cut-off time of 240 s was used to avoid tissue injury. The percentage of the maximal possible effect (%MPE) was calculated as: %MPE = (t1 − t0)/(t2 − t0) × 100, where t0: control latency, t1: test latency, and t2: cut-off time. The median antinociceptive dose (ED50) was calculated according to the method of Litchfield and Wilcox[36].

[4] = test system: Male balb/c mice; assay: Prevention mouse model of TNBS-induced colitis (macroscopic damage, MPO activity); assay type: in vivo; details: 1 mg/kg i.p. once daily
Description: (§1) Male balb/c mice (Animal Facility of Nofer Institute of Occupational Medicine, Lodz, Poland) weighing 22–25 g were used to determine the anti-inflammatory and anti-nociceptive activity of cyclopeptides after i.p. administration. All procedures and protocols used in this study were approved by the Local Ethical Committee for Animal Research (protocol number: 20/ŁB708/2014, 26 May 2014). The study was carried out in accordance with the recommendations described in the Guide for the Care and Use of Laboratory Animals of the Medical University of Lodz, Poland. All experimental procedures were performed in accordance with the current guidelines for the care of laboratory animals (including the use of the 3Rs procedures) and in accordance with the ARRIVE guidelines.
(§2) The experimental colitis was induced by intracolonic (i.c.) administration of 2,4,6-trinitrobenzenesulfonic acid (TNBS). Mice were anesthetized with isoflurane (Aerrane, Baxter, Deerfield, IL) and TNBS at the dose of 4 mg per mouse (dissolved in 30% EtOH in saline) in the final volume of 150 µl, was injected into the colon through a catheter inserted 3 cm proximally from the anus. Mice were then maintained in an inclined position for 1 min to ensure the proper distribution of the inductor in the colon. Next, recovery was allowed with food and water supplied. Control animals received vehicle alone (30% ethanol in saline; TNBS replaced with equivolume water).
In the prevention mouse model of colitis, F-81 was injected intraperitoneally (i.p.) at the dose of 1 mg/kg in saline, in the volume of 100 µl, once daily, for 3 days, 15 min prior to TNBS administration. Mice were weighted daily and monitored for clinical symptoms of colitis, including diarrhoea and bloody stool. On day 4, mice were sacrificed by rapid cervical dislocation and the macroscopic damage score was assessed.
(§3) To perform the macroscopic damage score, the colon was removed immediately after euthanasia, opened longitudinally, rinsed with phosphate buffered saline (PBS), and examined using an established semiquantitative scoring system by adding individual scores for ulcer, colonic shortening, wall thickness, and the presence of haemorrhage, faecal blood, and diarrhoea, as described before. For scoring ulcer and colonic shortening the following scale was used: ulcer: 0.5 points for each 0.5 cm; shortening of the colon: 1 point for >15%, 2 points for >25% (based on a mean length of the colon in untreated mice). The wall thickness was measured in millimetres, a thickness of n mm corresponded to n scoring points. The presence of haemorrhage, faecal blood, or diarrhoea increased the score by 1 point for each additional feature.
(§4) The colon fragments (20–30 mg) were gently isolated from mice after total macroscopic damage score assessment, immediately washed with PBS, and homogenized in hexadecyltrimethylammonium bromide (HTAB) buffer (0.5% HTAB in 50 mM potassium phosphate buffer, pH 6.0; 50 mg of tissue/ml) using Ika Ultra Turrax Disperser T25 Digital 2 (Sigma Aldrich, Poznan, Poland). The homogenates were centrifuged (20 min, 13,200g, 4 °C) and the supernatants were transferred to the new test tubes. Then, 7 µl portions of supernatants were added on a 96-well plate, followed by 200 µl of 50 mM potassium phosphate buffer (pH = 6.0), containing 0.167 mg/ml of O-dianisidine hydrochloride and 0.05 µl of 1% H2O2. The absorbance was measured at 450 nm after 30 and 60 s (iMARK Microplate Reader, Biorad, UK). All measurements were done in triplicates.
(§5) The MPO activity was expressed in units/g of a wet tissue. One unit is determined as a quantity of enzyme able to convert 1 µmol of H2O2 to water in 1 min at room temperature. MPO activity units were calculated from the standard curve using purified peroxidase enzyme.

[5] = test system: Male balb/c mice; assay: Semi-chronic model of TNBS-induced colitis (macroscopic damage, MPO activity); assay type: in vivo
Description: as §1, §2
In the semi-chronic model, the curative potential of F-81 was tested. TNBS was administered on day 0 and from day 3 to day 6 the F-81 treatment (1 mg/kg in saline, 100 µl, i.p) was performed. On day 7, mice were sacrificed and the evaluation of colonic damage was performed.
as §3
as §4, with “Then, 7 µl portions of supernatants were added on a 96-well plate, followed by 200 µl of 50 mM potassium phosphate buffer (pH = 6.0), containing 0.167 mg/ml of O-dianisidine hydrochloride and 0.05 µl of 1% H2O2.” left out, “All measurements were done in triplicates.” left out
as §5

[6] = test system: Male balb/c mice; assay: Histology, microscopic total damage score of distal colon (prevention model of colitis); assay type: in vivo; details: 1 mg/kg
Description: Distal colon sections from the preventive mouse model of colitis were stapled flat, mucosal side-up, onto cardboard strips and fixed in 10% formalin for 24 h at 4 °C. Samples were dehydrated, embedded in paraffin, sectioned at 5 µm, and mounted onto slides. The sections were then stained with haematoxylin and eosin and Motic AE31 microscope (Ted Pella, Sweden) photographs were taken using a digital imaging system consisting of a digital camera (Moticam 2300, Ted Pella, Sweden) and image analysis software (Motic Images Plus 2.0, Germany).
The microscopic total damage score was assessed using the following parameters: the goblet cell depletion (presence = 1, absence = 0), crypt abscesses (presence = 1, absence = 0), the destruction of mucosal architecture (normal = 1, moderate = 2, extensive = 3), the extent of muscle thickening (normal =1, moderate = 2, extensive = 3), and the presence and degree of cellular infiltration (normal = 1, moderate = 2, transmural = 3).

[7] = test system: Male balb/c mice; assay: Mustard oil induced abdominal pain in mice with acute TNBS-induced colitis; assay type: in vivo; details: mustard oil i.c., 1 mg/kg i.p., counted for 20 min, control group 29.28 ± 2.52
Description: as §1
To assess the anti-nociceptive effect of F-81 in mice with acute colitis, intestinal inflammation was induced by TNBS instillation three days prior to the experiment. Abdominal pain was induced in inflamed mice by the i.c. injection of 1% mustard oil (MO, allyl isothiocyanate) in 70% EtOH in saline. Mice were separated into clear plastic boxes (20 × 20 × 15 cm) and allowed a 5 min recovery after MO administration. Spontaneous behaviours (licking and stretching the abdomen, squashing of lower abdomen against the floor, and abdominal retraction) were observed and counted for 20 min.

[8] = test system: kappa-opioid receptor; design: method as in PMID 26005537, PMID 25047937; details: cited from earlier work
[9] = design: method as in PMID 19995587; details: i.v. ref 35; cited from earlier work
[10] = read-out: Solubility Mean (mg/ml)

In the case of `Cc1cc(O)cc(C)c1C[C@H](N)C(=O)N[C@@H]1CCCCNC(=O)C[C@@H](C(N)=O)NC(=O)[C@H](Cc2ccc(C(F)(F)F)cc2)NC(=O)[C@H](Cc2ccccc2)NC1=O` [Peptide F-81, Dmt-c[D-Lys-Phe-p-CF3-Phe-Asp]NH2] (H-[Dmt][dK]F[Phe(4-CF3)]D-NH2; lactam 2-5 (inferred)), the solubility at 90 min ([1]; read-out: Solubility Mean) is reported as 345 µM, the solubility at 90 min [1, 10] is reported as 0.27 mg/mL and the “BBB permeability Pe ± SD” value ([2]; PAMPA, pH 7.4) is reported as no more than 0.58. For the same compound, the “Classification (BBB permeation)” value ([2]; PAMPA-BBB) was “Low permeation (Pe < 2.0 – low permeation)”, the “Mean (%) Mass balance ± SD” value ([2]; PAMPA-BBB, membrane retention) was 95.75 ± 1.43% and the “Anti-nociceptive effect with co-administered naltrindole (delta antagonist)” value ([3]; F-81 10 ng/animal i.c.v., NTL 1 µg/animal) was “did not modify”. For the same compound, the “Anti-nociceptive effect with co-administered norbinaltorphimine (kappa antagonist)” value ([3]; F-81 10 ng/animal i.c.v., nor-BNI 5 µg/animal i.c.v.) was “did not modify”, the “Anti-nociceptive effect with co-administered β-funaltrexamine (mu antagonist)” value ([3]; F-81 10 ng/animal i.c.v., β-FNA 1 µg/animal) was “blocked” and the “Anti-nociceptive potency relative to C-36” value ([3]; hot-plate test, i.c.v., from the ED50 values) was “approximately threefold”. For the same compound, the “ED50 (jumping response)” value ([3]; hot-plate test, i.c.v.) was 17.27 ng, the Macroscopic damage score ([4]; 3 days, TNBS group 5.83) was 4.07 and the Intestinal wall thickness ([4]; TNBS group 1.08 ± 0.12, no difference) was 0.95 ± 0.07 mm. For the same compound, the Ulcer score ([4]; TNBS group 2.06 ± 0.22) was 1.43 ± 0.17, the Colon width ([4]; TNBS group 7.91 ± 0.23) was 6.09 ± 0.53 and the Colon length ([4]; TNBS group 8.01 ± 0.39, no difference) was 8.23 ± 0.24. For the same compound, the Inflammation area ([4]; TNBS group 24.42 ± 2.92) was 19.56 ± 2.16, the MPO activity ([4]; colon tissue, TNBS group 11.82 ± 1.72) was 3.65 ± 0.87 units/g of a wet tissue and the “Colon thickness, width, or length versus TNBS-treated group” value ([5]; 1 mg/kg i.p.) was “No differences”. The Macroscopic damage score ([5]; 1 mg/kg i.p. day 3 to day 6, TNBS group 4.15 ± 0.54) was 2.18 ± 0.40, the Ulcer score ([5]; 1 mg/kg i.p., TNBS group 1.30 ± 0.12) was 0.92 ± 0.83 and the Inflammation area ([5]; 1 mg/kg i.p., TNBS group 18.49 ± 3.95) was 12.23 ± 1.56. The MPO activity ([5]; colon tissue, 1 mg/kg i.p., TNBS group 8.26 ± 0.15) was 7.88 ± 0.24 units/g of a wet tissue, the Microscopic score [6] was “significantly improved” and the “Number of spontaneous pain behaviours” value [7] was 6.36 ± 1.98. For the same compound, the kappa-affinity [8] was “significant kappa-affinity”.
With `Cn1c(=O)c2[nH]cnc2n(C)c1=O` [Theophylline, theophylline, reference compound] the “Mean (%) Mass balance ± SD” value ([2]; PAMPA, pH 7.4) was 98.21 ± 3.65%.
For Tyr-c[D-Lys-Phe-Phe-Asp]NH2, the “Ability to reach the brain after i.v. administration” value [9] is given as “could reach the brain after i.v. administration”.
With `Cc1cc(O)cc(C)c1C[C@H](N)C(=O)N[C@@H]1CCCCNC(=O)C[C@@H](C(N)=O)NC(=O)[C@H](Cc2ccccc2)NC(=O)[C@H](Cc2ccccc2)NC1=O` [Peptide C-36, Dmt-c[D-Lys-Phe-Phe-Asp]NH2] (H-[Dmt][dK]FFD-NH2; lactam 2-5; N-terminus assumed) the solubility at 90 min ([1]; read-out: Solubility Mean) was no less than 500 µM, the solubility at 90 min [1, 10] was no less than 0.36 mg/mL and the “BBB permeability Pe ± SD” value ([2]; PAMPA, pH 7.4) was no more than 0.58. For the same compound, the “Classification (BBB permeation)” value ([2]; PAMPA-BBB) was “Low permeation (Pe < 2.0 – low permeation)”, the “Mean (%) Mass balance ± SD” value ([2]; PAMPA-BBB, membrane retention) was 97.87 ± 1.69% and the “ED50 (jumping response)” value ([3]; hot-plate test, i.c.v.) was 57.78 ng.
